The supplement of paper PMC10307832

Legend:
Assay in all cases: relative viability (nuclei count vs DMSO), 5 days (fraction); higher = more cells survive
[1] = compound: Cc1ccc(Nc2nccc(N(C)c3ccc4c(C)n(C)nc4c3)n2)cc1S(N)(=O)=O [Pazopanib] + Cc1nc(Nc2ncc(C(=O)Nc3c(C)cccc3Cl)s2)cc(N2CCN(CCO)CC2)n1 [Dasatinib] (partner 0.075 µM)
Summary of the method: (§1)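 Cells from lung cancer lines were seeded into 1536-well plates and, one day later, dosed by pin tool. Treatments were either a single drug or a fixed dose of an anchor drug with five library-drug doses (not always all listed) in √10 steps. After 5 days, nuclei were stained in a one-step fixation (final 0.05% Triton X-100, 1% formaldehyde, 1 ug/ml Hoechst) and counted on 4× images, and relative viability is the treated-to-vehicle nuclei ratio, as the median of duplicate plates.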

[2] = compound: Cc1ccc(Nc2nccc(N(C)c3ccc4c(C)n(C)nc4c3)n2)cc1S(N)(=O)=O [Pazopanib] + Nc1nc2[nH]cc(CCc3ccc(C(=O)N[C@@H](CCC(=O)O)C(=O)O)cc3)c2c(=O)[nH]1 [Pemetrexed] (partner 0.2 µM)
Summary of the method: as §1

[3] = compound: Cc1ccc(C(=O)Nc2ccc(CN3CCN(C)CC3)c(C(F)(F)F)c2)cc1C#Cc1cnc2cccnn12 [Ponatinib] + CC(=O)c1c(C)c2cnc(Nc3ccc(N4CCNCC4)cn3)nc2n(C2CCCC2)c1=O [Palbociclib] (partner 0.5 µM)
Summary of the method: as §1

[4] = compound: Cc1ccc(Nc2nccc(N(C)c3ccc4c(C)n(C)nc4c3)n2)cc1S(N)(=O)=O [Pazopanib] + COc1cc2c(Oc3ccc(NC(=O)C4(C(=O)Nc5ccc(F)cc5)CC4)cc3F)ccnc2cc1OCCCN1CCOCC1 [Foretinib] (partner 0.25 µM)
Summary of the method: as §1

## UMC-11
[1]; first compound 0.01 µM
  relative viability: 0.455
[1]; first compound 0.03162 µM
  relative viability: 0.459
[1]; first compound 0.1 µM
  relative viability: 0.568
[1]; first compound 0.3162 µM
  relative viability: 0.467
[1]; first compound 1 µM
  relative viability: 0.432
[2]; first compound 0.01 µM
  relative viability: 0.743
[2]; first compound 0.03162 µM
  relative viability: 0.908
[2]; first compound 0.1 µM
  relative viability: 0.871
[2]; first compound 0.3162 µM
  relative viability: 0.701
[2]; first compound 1 µM
  relative viability: 0.844
[3]; first compound 0.006325 µM
  relative viability: 0.312
[3]; first compound 0.06325 µM
  relative viability: 0.287
[3]; first compound 0.2 µM
  relative viability: 0.346
[4]; first compound 0.01 µM
  relative viability: 0.958
[4]; first compound 0.03162 µM
  relative viability: 1.16
[4]; first compound 0.1 µM
  relative viability: 1.19
[4]; first compound 0.3162 µM
  relative viability: 1.07
[4]; first compound 1 µM
  relative viability: 1.13
